In patent publication US11161823B2, “Anticancer 1,3-dioxane-4,6-dione derivatives and method of combinatorial synthesis thereof” (National Guard Health Affairs, priority 2019, dated 2021):

Columns and labels:
KAIMRC1 (Breast) = assay: MTT cell proliferation assay, KAIMRC1; assay type: cell-based, human; conditions: Homo sapiens; MTT, 48 h treatment, medium with 10% FBS; read-out: IC50 μM KAIMRC1 (Breast)
Excerpt: The immortalized cell lines included in the testing panel of this disclosure are MCF7 (a breast cancer cell line), MCF10 (immortalized human breast epithelial cells), MDA-MB231 (an epithelial, human breast cancer cell line that was established from a pleural effusion of a patient with a metastatic mammary adenocarcinoma), KAIMRC1 (a naturally immortalized human breast carcinoma cell line), KAIMRC2 (a naturally immortalized breast cancer cell line). The primary cells available for lead toxicity assays are, without limitation: hepatocytes (supplied by Xenotech, Bioscience Lonza, Accegen, Biocompare, Gibco, Zen-Bio, Takarabio, AxolBio, Creative Bioarray), cardiomyocytes (supplied by Cellartis, Axolbio, Cedarlanelabs, EMD Millipore, Takara Bio, Neuromics, AcceGene), primary neurons (AcceGen, Cellapplications, Neuromics, Biocompare, AxolBio, BrainXcell), endothelial lining (Thermofisher, Accegen, Biocompare, Promocell, ATCC). Multicellular 3D organoids raised by differentiating iPSC (induced pluripotent stem cells) are provided by Sigma Aldrich (the iPSC cell lines, organoids), Tocris Bioscience, Thermofisher, Stemcell Technologies, Takara Bio, Emulatebio (Human organ chips), Prodolabs.
(§1) Cell Culture: The human breast cancer epithelial cell lines MDA-MB-231 (HTB-26™), MCF-7 (HTB-22™), colon cancer cell lines HCT 116 (CCL-247™) and […] (CCL-244™) were obtained from American Type Culture Collection (ATCC). Additionally, KAIMRC1 cell line was isolated and developed at KAIMRC from a breast cancer patient. All the cells were grown in advanced DMEM containing 10% fetal bovine serum (FBS), 50 units/mL penicillin, 50 ug/mL streptomycin (GIBCO), and 2 mM glutamine (GIBCO). The cells were cultured at 37° C. in a humidified 5% CO2 atmosphere for 24 hours before experimental procedure.
(§2) Cell Proliferation Assay (MTT): Cells were plated on flat-bottom 96-well plates at a density of 5×10^3 cells/well in 100 μL growth medium. Serial dilutions of the compounds, ranging from 100 nM-100 μM were tested on the cells in triplicates. Additional rows with only the compounds and only cells were added in order to account for the compounds and cells effect. Cells were incubated with compounds for 48 h at 37° C. with 5% CO2.
(§3) After 48 h treatment, the cell viability was determined using the MTT viability assay. Briefly, 5 μL of MTT reagent (5 mg/mL stock) per 95 μl cell culture medium was added to each well and incubated for 3 h at 37° C. with 5% CO2. After 3 h the supernatant was removed, and the MTT formazan crystals were dissolved in dimethyl sulfoxide (DMSO) by shaking the plate for 30 mins at RT. The absorbance was measured on Molecular Devices microplate absorbance reader at 560 nm. The percentage of viable cells was calculated as the ratio of the absorbance of the treated group divided by the absorbance of the control group multiplied by 100. The absorbance from the untreated control cells was set as 100% viable. IC50 values were calculated from dose-response curves generated using a polynomial dose-response approximation using Prism 8 software. The IC50 values (µM) obtained for the compounds of present invention on MDA-MD 231 (breast), MCF-7 (breast), KAIMRC1 (breast), HCT116 (colon) and HCT8 (colon) are summarized in Table 5 and 6.

MCF-7 (Breast) = assay: MTT cell proliferation assay, MCF-7; assay type: cell-based, human; conditions: Homo sapiens, MCF7; MTT, 48 h treatment, medium with 10% FBS; read-out: IC50 μM MCF-7 (Breast)
Experimental: as §1, §2, §3

[1] = test system: MDA-MD 231 (breast), MCF-7 (breast), KAIMRC1 (breast), HCT116 (colon) and HCT8 (colon); assay: MTT assay, review of Tables 5 and 6 (whole cell line panel); assay type: cell-based, human; conditions: review of Tables 5 and 6, MTT IC50
Experimental: as §1, §2, §3
The presence of nitrogen in certain positions of quinoline and/or iso-quinoline ring is the structure-activity determinant, and the subsequent variations in the nitrogen positions and substituents in this ring produce stronger leads by the methods of combinatorial expansion disclosed herein.

HCT 8 (Colon) = assay: MTT cell proliferation assay, HCT 8; assay type: cell-based, human; conditions: Homo sapiens, HCT-8; MTT, 48 h treatment, medium with 10% FBS; read-out: IC50 μM HCT 8 (Colon)
Experimental: as §1, §2, §3

HCT116 (Colon) = assay: MTT cell proliferation assay, HCT116; assay type: cell-based, human; conditions: Homo sapiens, HCT-116; MTT, 48 h treatment, medium with 10% FBS; read-out: IC50 μM HCT116 (Colon)
Experimental: as §1, §2, §3

[2] = test system: MDA MB-231 cell line (Breast); assay: MTT cell proliferation assay, MDA MB-231; assay type: cell-based, human; conditions: Homo sapiens, MDA-MB-231; MTT, 48 h treatment, medium with 10% FBS; read-out: IC50 μM MDA MB-231 (Breast)
Experimental: as §1, §2, §3

HL 60 (leukemia) = assay: Cell Titre Glo luminescent cell viability assay, HL 60; assay type: cell-based; conditions: Homo sapiens, HL-60; Cell Titre Glo luminescence, normalized to DMSO controls
Excerpt: (§4) Another embodiment discloses Titer Glo Assay for the characterization of the synthesized compounds. The CellTiter-Glo® Luminescent Cell Viability Assay is a homogeneous method of determining the number of viable cells in culture based on quantitation of the ATP present, an indicator of metabolically active cells. The CellTiter-Glo® Assay is designed for use with multiwell formats, making it ideal for automated high-throughput screening (HTS), cell proliferation, and cytotoxicity assays. The homogeneous assay procedure involves adding the single reagent (CellTiter-Glo® Reagent) directly to cells cultured in serum-supplemented medium. Cell washing, removal of medium, and multiple pipetting steps are not required. The system detects as few as 15 cells/well in a 384-well format in 10 minutes after adding reagent and mixing.
as §1
(§5) Cell Titre Glo assay was performed on two Leukemia cell lines, HL 60 and ThP1 as per manufacturer's (Promega) recommendations. Briefly, plates were prepared as mentioned in cell culture section. 100 µL of Cell Titre Glo was added directly to the wells. After incubation for 30 minutes at room temperature, luminescence was measured using the Envision plate reader (Perkin Elmer). Luminescence readings were normalized to averaged DMSO controls and expressed as relative percentage. IC50 values were calculated from dose-response curves generated using a polynomial dose-response approximation using Prism 8 software.

ThP1 (leukemia) = assay: Cell Titre Glo luminescent cell viability assay, ThP1; assay type: cell-based; conditions: Homo sapiens, THP-1; Cell Titre Glo luminescence, normalized to DMSO controls
Excerpt: as §4, §1, §5

| SMILES | IC50 (KAIMRC1 (Breast)) | IC50 (MCF-7 (Breast)) | range of activity compared with Mitoxanthrone [1] | IC50 (HCT 8 (Colon)) | IC50 (HCT116 (Colon)) | IC50 [2] | IC50 (HL 60 (leukemia)) | IC50 (ThP1 (leukemia)) |
| --- | --- | --- | --- | --- | --- | --- | --- | --- |
| CCC1(C)OC(=O)C(=CC=Cc2cncc3ccccc23)C(=O)O1 (stereo not shown) [Example 12, 2-ETHYL-5-(3-ISOQUINOLIN-4-YL-ALLYLIDENE)-2-METHYL-[1,3]DIOXANE-4,6-DIONE] | 4.25 µM | 9.29 µM | range of activity that begins to overlap with that of Mitoxanthrone | 1.87 µM | 2.47 µM | 6.05 µM | 2.05 µM | 1.82 µM |
| CCC1(C)OC(=O)C(=CC=Cc2ccnc3ccccc23)C(=O)O1 (stereo not shown) [Example 13, 2-ETHYL-2-METHYL-5-(3-QUINOLIN-4-YL-ALLYLIDENE)-[1,3]DIOXANE-4,6-DIONE] | 14.4 µM | 9.15 µM | range of activity that begins to overlap with that of Mitoxanthrone | 19.8 µM | 6.38 µM | 11 µM | 1.04 µM | 0.88 µM |
